The subject of assay [1] is Staphylococcus aureus. Briefly: (§1) Antimicrobial activity against Staphylococcus aureus 8325 by serial dilution method. Type of assay: functional.
Assay [2] relates to Enterococcus faecium. Briefly: Antimicrobial activity against vancomycin-resistant Enterococcus faecium NCTC-12203 by serial dilution method.
Assay [3] relates to Staphylococcus aureus. The assay is described as §1. In kind it is functional. The source holds these as a separate data set.
For assay [4], the system named is Staphylococcus aureus. Description: Antimicrobial activity against Staphylococcus aureus Smith by serial dilution method. Type of assay: functional.
For assay [5], the system named is Escherichia coli. Description: Antimicrobial activity against Escherichia coli NIHJ JC-2 by serial dilution method. In kind it is functional.
Assay [6] has as its system Staphylococcus aureus. Briefly: Antimicrobial activity against methicillin-resistant Staphylococcus aureus N315 IR94-HR-1 by serial dilution method. In kind it is functional.
Assay [7] concerns Enterococcus faecalis. Description: Antimicrobial activity against vancomycin-resistant Enterococcus faecalis NCTC-12201 by serial dilution method. In kind it is functional.
In assay [8] the test system is Staphylococcus aureus. Description: Antimicrobial activity against methicillin-resistant Staphylococcus aureus 92-1191 by serial dilution method. In kind it is functional.
Assay [9] has as its system Staphylococcus aureus. Briefly: Antimicrobial activity against methicillin-resistant Staphylococcus aureus N315 IR94 by serial dilution method. Type of assay: functional.
Assay [10] deals with Staphylococcus aureus. Description: Antimicrobial activity against Staphylococcus aureus ISP217 by serial dilution method. Type of assay: functional.
Assay [11] concerns Staphylococcus aureus. Briefly: Antimicrobial activity against methicillin-resistant Staphylococcus aureus 70 by serial dilution method. In kind it is functional.
For assay [12], the system named is Staphylococcus aureus. Briefly: Antimicrobial activity against Staphylococcus aureus FDA209P by serial dilution method. In kind it is functional.
Assay [13] concerns Staphylococcus aureus. Description: Antimicrobial activity against Staphylococcus aureus ISP447 by serial dilution method. Type of assay: functional.

The structures appear in SMILES notation. Values after ≈ are worked out from the molar mass of the structure shown.

Broadly, the MIC is the lowest concentration that inhibits growth of the organism.

Regarding `CC[C@H]1OC(=O)[C@H](C)[C@@H](OCc2cn(CC(=O)Nc3ccccn3)nn2)[C@H](C)[C@@H](O[C@@H]2O[C@H](C)C[C@H](N(C)C)[C@H]2O)[C@@]2(C)CC(C)=C(O2)[C@H](C)[C@@H](OC(=O)C(C)C)[C@]1(C)OC(=O)C(C)C`, the MIC was 16 µg/mL (≈ 17.5 µM) in assay [1]; 32 µg/mL (≈ 35 µM) in [2]; 32 µg/mL (≈ 35 µM) in [3]; 32 µg/mL (≈ 35 µM) in assay [4]; greater than 128 µg/mL in [5]; 16 µg/mL (≈ 17.5 µM) in assay [6]. Also, the MIC in assay [7] was greater than 128 µg/mL; in assay [8] it was 32 µg/mL (≈ 35 µM); in assay [9], 16 µg/mL (≈ 17.5 µM); in [10], 16 µg/mL (≈ 17.5 µM); in [11] it was 32 µg/mL (≈ 35 µM); in [12], 32 µg/mL (≈ 35 µM). The MIC in assay [13] was found to be 32 µg/mL (≈ 35 µM).
As for `CC[C@H]1OC(=O)[C@H](C)[C@@H](OCc2cn(CC(=O)OCc3ccccc3)nn2)[C@H](C)[C@@H](O[C@@H]2O[C@H](C)C[C@H](N(C)C)[C@H]2O)[C@@]2(C)CC(C)=C(O2)[C@H](C)[C@@H](OC(=O)C(C)C)[C@]1(C)OC(=O)C(C)C`, the minimal inhibitory concentration (MIC) in assay [1] was 16 µg/mL (≈ 17.3 µM); in [2], 32 µg/mL (≈ 34.5 µM); in [3] it was 64 µg/mL (≈ 69 µM); in assay [4], 128 µg/mL (≈ 138 µM); in [5], greater than 128 µg/mL; in assay [6], 16 µg/mL (≈ 17.3 µM). Also, the minimal inhibitory concentration (MIC) in assay [7] was 32 µg/mL (≈ 34.5 µM); in assay [8] it was 32 µg/mL (≈ 34.5 µM); in assay [9], 16 µg/mL (≈ 17.3 µM); in [10] it was 16 µg/mL (≈ 17.3 µM); in assay [11], 16 µg/mL (≈ 17.3 µM); in assay [12], 32 µg/mL (≈ 34.5 µM). The same compound had a minimum inhibitory concentration (MIC) in [13] of 64 µg/mL (≈ 69 µM).

These data come from ChEMBL document CHEMBL1140490, “Design and synthesis via click chemistry of 8,9-anhydroerythromycin A 6,9-hemiketal analogues with anti-MRSA and -VRE activity” (2007).
